Measurements: patent US20230048350A1, “BENZOCOUMARIN AMPK ACTIVATOR COMPOUNDS, COMPOSITIONS, METHODS AND USES THEREOF” (SOCIETE DES PRODUITS NESTLE S.A., priority 2019, published 2023)
“Also recorded” adds a separate entry of the source.

Tests used:
AMPK β1 WT = assay: pACC HTRF assay in AMPKβ1/β2 double knockout U-2 OS cells stably expressing β1 WT; format: cell-based, human; conditions: varying concentrations
Text: (§1) AMPKβ1/β2 double knockout U-2 OS Flp-In™ T-Rex™ cell lines were generated by Horizon Discovery (Cambridge, UK). Cells were genotyped and analysed by western blotting to confirm that there was a complete knockout of AMPKβ1/β2. We took these AMPKβ1/β2 double knockout cells, and re-introduced the expression of human β1 wild-type (WT) or a […] Serine 108 to alanine mutation (S108A). This was achieved using the Flp-In™ system (Invitrogen) present in this cell line and stable cells expressing β1 WT or a β1 S108A mutant were generated according to the manufacturers' protocols. Re-expression of the β1 subunit was confirmed by Western blot analysis.
(§2) Cells stably expressing β1 WT or a β1 S108A mutant were treated with varying concentrations of Compound 1 and subjected to the pACC HTRF (Cisbio) assay to determine the level of phosphorylation of the AMPK substrate, ACC, in cell lysates.
(§3) AMPKβ1/β2 double knockout cells were used and re-introduced the expression of human β1 WT or β2 WT isoforms. […] Cells stably expressing β1 WT or β2 were treated with varying concentrations of Compound 1 and subjected to the pACC HTRF (Cisbio) assay to determine the level of phosphorylation of the AMPK substrate, ACC, in cell lysates, as in Example 1.

[1] = tested on: AMPK β1 S108A mutant (ADaM-binding site mutant); assay: pACC HTRF assay in AMPKβ1/β2 double knockout U-2 OS cells stably expressing β1 S108A mutant; format: cell-based, human; conditions: varying concentrations
Text: as §1, §2

AMPK = assay: pACC HTRF assay in U-2 OS Flp-In T-REx cells; format: cell-based; conditions: 30 mins, varying concentrations, HTRF 665 nm/620 nm ratio
Procedure: U-2 OS Flp-In T-REx cells were seeded at 50 K in a 96-well plate and left overnight at 37 C in DMEM GlutaMAX (Thermo Fisher Scientific) supplemented with 10% (vol/vol) FBS and 100 U/ml penicillin G, and 100 μg/ml streptomycin. Cells were treated for 30 mins with varying concentrations of Compound 1 in media lacking FBS and then cells were lysed in 50 μl of Cisbio lysis buffer #1 supplemented with blocking solution as per the manufacturer's protocol (Cisbio). Cells were lysed for 30 mins at room temperature before 16 μl of lysate was incubated with 4 μl of the HTRF antibodies (1:40 dilution of the acceptor and donor (p)ACC antibodies, as per the manufacturers protocol). Lysates were incubated overnight with the antibodies before 665 nm/620 nm ratio was determined using a MolecularDevices i3 plate reader (with a HTRF cartridge add-on).
Phosphorylation of ACC is widely used as a cellular indicator of AMPK activity.

AMPK β2 WT isoform = assay: pACC HTRF assay in AMPKβ1/β2 double knockout U-2 OS cells stably expressing β2 WT; format: cell-based, human; conditions: varying concentrations
Procedure: as §3
This activation profile is characteristic of activators that bind to the ADaM site and consistent with previous studies showing that ADaM-site activators have poorer activation of β2-containing complexes in vitro and in cells.

SMILES: COc1cc(O)c2c(c1)c(=O)oc1cc(O)ccc12 [Compound 1, 3,10-Dihydroxy-8-methoxy-6H-benzo[c]chromen-6-one]
- phosphorylation of the AMPK substrate, ACC (pACC); AMPK activation (AMPK β1 WT): activates AMPK; also recorded: able to dose-dependently increase pACC
- phosphorylation of the AMPK substrate, ACC (pACC); AMPK activation [1]: does not activate AMPK; also recorded: not able to increase pACC
- phosphorylation of the AMPK substrate, ACC (pACC) (AMPK): increases the phosphorylation of the AMPK substrate, ACC, in a dose-dependent manner
- phosphorylation of the AMPK substrate, ACC (pACC); AMPK activation (AMPK β2 WT isoform): does not activate AMPK; also recorded: not able to increase pACC
